# Patent publication US10874108B2, “Anti-microbial compositions” (5D HEALTH PROTECTION GROUP LTD, priority 2016, dated 2020)
# Tests used:
# [1] = Cumulative elution from carbopol hydrogel; assay type: physicochemical
# Experimental: Hydrogels were loaded with EDTA compounds and investigated for elution of the silver, zinc and EDTA. Carbopol ETD 2020 was obtained from Lubrizol Advanced Materials, Inc. USA. 1.2 g carbopol power was dissolved in 42.36 g deionized water for 1 hour to fully hydrate. Then 8.4 ml of the EDTA complexes and 4.8 g glycerine were added into carbopol solution with vigorous stirring; finally, 3 g 50% triethanolamine was dropped into the suspension to obtain final products: carbopol hydrogel with EDTA complexes.
# The silver, zinc and EDTA increased in saline day by day, which indicated the release of silver, zinc and EDTA can be controlled from the hydrogel.
# [2] = Elution from loaded gauze; assay type: physicochemical
# Experimental: The gauzes were weighed before soaking, after soaking and after drying for 24 hours. To assess the elution profile of the EDTA complexes from gauze, the loaded gauzes were immersed in water and saline (Table 6 and Table 7). […] After day 2, the eluting of silver, zinc and EDTA decreased more than 5 times compared to day 1.
# [3] = system: S. aureus MRSA BAA-43 biofilm; assay: MBEC model (ASTM E2799), liquid formulas; assay type: cell-based; conditions: treated 24 hours
# Experimental: (§1) The MBEC model (ASTM E2799) was used to assess the anti-biofilm efficacy of the liquid formulas. Biofilms were grown on polystyrene pegs in the MBEC model for either 24 or 48 hours before treatment. Using the liquid form of the EDTA complexes 24- and 48-hour biofilms were tested (Table 20).
# (§2) 24- and 48-hour biofilms were formed using MBEC plate method and treated for 24 hours. Technical replicates n=3. Log reduction (LR) values show±standard error (SE) of LR value.
# [4] = system: E. faecalis ATCC 29212 biofilm; assay: MBEC model (ASTM E2799), liquid formulas; assay type: cell-based; conditions: treated 24 hours
# Experimental: as §1, §2
# [5] = system: P. aeruginosa NCTC 10662 biofilm; assay: MBEC model (ASTM E2799), liquid formulas; assay type: cell-based; conditions: treated 24 hours
# Experimental: as §1, §2
# [6] = system: S. aureus ATCC 29213 biofilm; assay: MBEC model (ASTM E2799), liquid formulas; assay type: cell-based; conditions: treated 24 hours
# Experimental: as §1, §2
# [7] = system: S. epidermidis ATCC 35984 biofilm; assay: MBEC model (ASTM E2799), liquid formulas; assay type: cell-based; conditions: treated 24 hours
# Experimental: as §1, §2
compound,measurement,setting,value
"O=C([O-])CN(CCN(CC(=O)[O-])CC(=O)[O-])CC(=O)[O-].[Ag+].[Ag+].[Zn+2] [EDTA compound 4, sample 1]",Elution in saline (ppm) EDTA,[1]; day 1,26.39 ± 2.06 ppm
same,Elution in saline (ppm) Silver,[1]; day 1,32.09 ± 3.02 ppm
same,Elution in saline (ppm) Zinc,[1]; day 1,22.12 ± 3.31 ppm
same,Elution in water (ppm) EDTA,[1]; day 1,31.12 ± 5.40 ppm
same,Elution in water (ppm) Silver,[1]; day 1,44.39 ± 5.98 ppm
same,Elution in water (ppm) Zinc,[1]; day 1,31.88 ± 3.53 ppm
same,Elution in saline (ppm) EDTA,[1]; day 2,27.18 ± 2.34 ppm
same,Elution in saline (ppm) Silver,[1]; day 2,37.09 ± 2.91 ppm
same,Elution in saline (ppm) Zinc,[1]; day 2,30.90 ± 5.81 ppm
same,Elution in water (ppm) EDTA,[1]; day 2,26.21 ± 4.20 ppm
same,Elution in water (ppm) Silver,[1]; day 2,47.13 ± 5.03 ppm
same,Elution in water (ppm) Zinc,[1]; day 2,36.09 ± 3.61 ppm
same,Elution in saline (ppm) EDTA,[1]; day 3,35.02 ± 0.72 ppm
same,Elution in saline (ppm) Silver,[1]; day 3,47.05 ± 2.79 ppm
same,Elution in saline (ppm) Zinc,[1]; day 3,36.73 ± 3.64 ppm
same,Elution in water (ppm) EDTA,[1]; day 3,37.28 ± 2.58 ppm
same,Elution in water (ppm) Silver,[1]; day 3,45.58 ± 4.54 ppm
same,Elution in water (ppm) Zinc,[1]; day 3,34.28 ± 4.55 ppm
same,Elution in saline (ppm) EDTA,[1]; day 4,37.71 ± 1.92 ppm
same,Elution in saline (ppm) Silver,[1]; day 4,51.24 ± 1.53 ppm
same,Elution in saline (ppm) Zinc,[1]; day 4,40.31 ± 1.84 ppm
same,Elution in water (ppm) EDTA,[1]; day 4,37.53 ± 3.27 ppm
same,Elution in water (ppm) Silver,[1]; day 4,46.88 ± 6.86 ppm
same,Elution in water (ppm) Zinc,[1]; day 4,33.78 ± 2.20 ppm
same,Elution in saline (ppm) EDTA,[1]; day 5,40.57 ± 1.41 ppm
same,Elution in saline (ppm) Silver,[1]; day 5,59.55 ± 1.21 ppm
same,Elution in saline (ppm) Zinc,[1]; day 5,43.22 ± 3.91 ppm
same,Elution in water (ppm) EDTA,[1]; day 5,35.11 ± 5.39 ppm
same,Elution in water (ppm) Silver,[1]; day 5,45.91 ± 7.04 ppm
same,Elution in water (ppm) Zinc,[1]; day 5,35.99 ± 1.16 ppm
same,Elution in saline (ppm) EDTA,[2]; day 1,24.65 ± 2.40 ppm
same,Elution in saline (ppm) Silver,[2]; day 1,49.91 ± 2.29 ppm
same,Elution in saline (ppm) Zinc,[2]; day 1,29.69 ± 2.40 ppm
same,Elution in water (ppm) EDTA,[2]; day 1,18.09 ± 3.19 ppm
same,Elution in water (ppm) Silver,[2]; day 1,35.89 ± 5.66 ppm
same,Elution in water (ppm) Zinc,[2]; day 1,21.99 ± 2.85 ppm
same,Elution in saline (ppm) EDTA,[2]; day 2,9.19 ± 3.42 ppm
same,Elution in saline (ppm) Silver,[2]; day 2,12.76 ± 4.44 ppm
same,Elution in saline (ppm) Zinc,[2]; day 2,9.14 ± 2.77 ppm
same,Elution in water (ppm) EDTA,[2]; day 2,12.54 ± 3.11 ppm
same,Elution in water (ppm) Silver,[2]; day 2,25.27 ± 5.63 ppm
same,Elution in water (ppm) Zinc,[2]; day 2,15.66 ± 2.73 ppm
same,Elution in saline (ppm) EDTA,[2]; day 3,1.83 ± 0.26 ppm
same,Elution in saline (ppm) Silver,[2]; day 3,3.43 ± 0.54 ppm
same,Elution in saline (ppm) Zinc,[2]; day 3,3.71 ± 0.27 ppm
same,Elution in water (ppm) EDTA,[2]; day 3,1.90 ± 0.79 ppm
same,Elution in water (ppm) Silver,[2]; day 3,4.93 ± 2.56 ppm
same,Elution in water (ppm) Zinc,[2]; day 3,4.42 ± 1.62 ppm
same,Elution in saline (ppm) EDTA,[2]; day 4,1.28 ± 0.84 ppm
same,Elution in saline (ppm) Silver,[2]; day 4,2.29 ± 1.73 ppm
same,Elution in saline (ppm) Zinc,[2]; day 4,3.42 ± 0.93 ppm
same,Elution in water (ppm) EDTA,[2]; day 4,1.27 ± 0.84 ppm
same,Elution in water (ppm) Silver,[2]; day 4,1.75 ± 0.76 ppm
same,Elution in water (ppm) Zinc,[2]; day 4,3.26 ± 0.35 ppm
same,Elution in saline (ppm) EDTA,[2]; day 5,0.45 ± 0.15 ppm
same,Elution in saline (ppm) Silver,[2]; day 5,2.52 ± 2.26 ppm
same,Elution in saline (ppm) Zinc,[2]; day 5,2.68 ± 2.00 ppm
same,Elution in water (ppm) EDTA,[2]; day 5,0.87 ± 0.36 ppm
same,Elution in water (ppm) Silver,[2]; day 5,0.85 ± 0.34 ppm
same,Elution in water (ppm) Zinc,[2]; day 5,2.06 ± 1.21 ppm
Silver,Kill %,"[3]; 50 ppm, 24-Hour Biofilm",100%
same,LR,"[3]; 50 ppm, 24-Hour Biofilm",5.40
same,Kill %,"[3]; 50 ppm, 48-Hour Biofilm",100%
same,LR,"[3]; 50 ppm, 48-Hour Biofilm",6.43
same,Kill %,"[3]; 100 ppm, 24-Hour Biofilm",100%
same,LR,"[3]; 100 ppm, 24-Hour Biofilm",5.40
same,Kill %,"[3]; 100 ppm, 48-Hour Biofilm",100%
same,LR,"[3]; 100 ppm, 48-Hour Biofilm",6.43
same,Kill %,"[4]; 50 ppm, 24-Hour Biofilm",100%
same,LR,"[4]; 50 ppm, 24-Hour Biofilm",6.35
same,Kill %,"[4]; 50 ppm, 48-Hour Biofilm",100%
same,LR,"[4]; 50 ppm, 48-Hour Biofilm",6.40
same,Kill %,"[4]; 100 ppm, 24-Hour Biofilm",100%
same,LR,"[4]; 100 ppm, 24-Hour Biofilm",6.35
same,Kill %,"[4]; 100 ppm, 48-Hour Biofilm",100%
same,LR,"[4]; 100 ppm, 48-Hour Biofilm",6.40
same,Kill %,"[5]; 50 ppm, 24-Hour Biofilm",100%
same,LR,"[5]; 50 ppm, 24-Hour Biofilm",7.44
same,Kill %,"[5]; 50 ppm, 48-Hour Biofilm",100%
same,LR,"[5]; 50 ppm, 48-Hour Biofilm",8.44
same,Kill %,"[5]; 100 ppm, 24-Hour Biofilm",100%
same,LR,"[5]; 100 ppm, 24-Hour Biofilm",7.44
same,Kill %,"[5]; 100 ppm, 48-Hour Biofilm",100%
same,LR,"[5]; 100 ppm, 48-Hour Biofilm",8.44
same,Kill %,"[6]; 50 ppm, 24-Hour Biofilm",100%
same,LR,"[6]; 50 ppm, 24-Hour Biofilm",6.44
same,Kill %,"[6]; 50 ppm, 48-Hour Biofilm",100%
same,LR,"[6]; 50 ppm, 48-Hour Biofilm",6.50
same,Kill %,"[6]; 100 ppm, 24-Hour Biofilm",100%
same,LR,"[6]; 100 ppm, 24-Hour Biofilm",6.44
same,Kill %,"[6]; 100 ppm, 48-Hour Biofilm",100%
same,LR,"[6]; 100 ppm, 48-Hour Biofilm",6.50
same,Kill %,"[7]; 50 ppm, 24-Hour Biofilm",100%
same,LR,"[7]; 50 ppm, 24-Hour Biofilm",6.09
same,Kill %,"[7]; 50 ppm, 48-Hour Biofilm",100%
same,LR,"[7]; 50 ppm, 48-Hour Biofilm",6.41
same,Kill %,"[7]; 100 ppm, 24-Hour Biofilm",100%
same,LR,"[7]; 100 ppm, 24-Hour Biofilm",6.09
same,Kill %,"[7]; 100 ppm, 48-Hour Biofilm",100%
same,LR,"[7]; 100 ppm, 48-Hour Biofilm",6.41
